Source: the supplement of paper PMC7840683

Test system: HepaRG
Test: LDH release cytotoxicity, % of total lysis control; higher = more cytotoxic
Conditions: 48 h
Procedure, shortened: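 HepaRG cells from a single lot were plated on collagen I-coated 96-well plates and treated in duplicate for 48 h with eight-point half-log series of test chemicals, starting at 100 µM, in serum-free induction medium containing 0.5% DMSO. Total lysis wells were given 0.1% Triton X. LDH released into 50 µL of spent medium was measured as resorufin fluorescence with CytoTox-ONE on a Tecan Safire. Percent cytotoxicity was normalized to on-plate vehicle and total lysis controls and then averaged across duplicates.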

Clc1nc(Cl)nc(Nc2ccccc2Cl)n1 [Anilazine]
Conditions	LDH release cytotoxicity [%]
0.03162 µM	0.501
0.1 µM	0.704
0.3162278 µM	0.988
1 µM	0.786
3.16228 µM	0.633
10 µM	0.855
31.6228 µM	0.799
100 µM	0.712

CCCOCC(=Nc1ccc(Cl)cc1C(F)(F)F)n1ccnc1 [Triflumizole]
Conditions	LDH release cytotoxicity [%]
0.03162 µM	-0.709
0.1 µM	-1.15
0.3162278 µM	-0.687
1 µM	-0.497
3.16228 µM	-0.543
10 µM	-0.414
31.6228 µM	-0.332
100 µM	0.335

CNC(=O)C=C(C)OP(=O)(OC)OC [Monocrotophos]
Conditions	LDH release cytotoxicity [%]
0.03162 µM	-1.04
0.1 µM	-1.87
0.3162278 µM	-1.93
1 µM	-1.17
3.16228 µM	-1.61
10 µM	-1.39
31.6228 µM	-0.305
100 µM	-0.571

CN(C)C(=S)[S-].CN(C)C(=S)[S-].[Zn+2] [Ziram]
Conditions	LDH release cytotoxicity [%]
0.03162 µM	-1.6
0.1 µM	-1.5
0.3162278 µM	-1.92
1 µM	-1.52
3.16228 µM	-1.1
10 µM	-0.764
31.6228 µM	37.6
100 µM	46.8

CNC(=O)Oc1ccccc1OC(C)C [Propoxur]
Conditions	LDH release cytotoxicity [%]
0.03162 µM	-0.314
0.1 µM	-0.642
0.3162278 µM	0.0787
1 µM	-0.886
3.16228 µM	0.431
10 µM	-0.355
31.6228 µM	-0.0411
100 µM	2.29

C=CC(=O)NCNC(=O)C=C [N,N'-Methylenebisacrylamide]
Conditions	LDH release cytotoxicity [%]
0.03162 µM	-0.744
0.1 µM	-0.797
0.3162278 µM	-0.644
1 µM	-1.4
3.16228 µM	-0.3
10 µM	-0.328
31.6228 µM	-0.405
100 µM	1.88

C#CCOC(=O)C(C)Oc1ccc(Oc2ncc(Cl)cc2F)cc1 (configuration not stated) [Clodinafop-propargyl]
Conditions	LDH release cytotoxicity [%]
0.03162 µM	-1.35
0.1 µM	-1.3
0.3162278 µM	-1.68
1 µM	-0.544
3.16228 µM	-1.29
10 µM	-0.851
31.6228 µM	-0.0728
100 µM	0.27

CC(=O)c1ccccc1 [Acetophenone]
Conditions	LDH release cytotoxicity [%]
0.03162 µM	-2.51
0.1 µM	-2.44
0.3162278 µM	-2.72
1 µM	-2
3.16228 µM	-2.1
10 µM	-1.71
31.6228 µM	-1.38
100 µM	-0.356

O=C(O)CCN(C1(C(=O)NO)CCCC1)S(=O)(=O)c1ccc(Oc2ccc(F)cc2)cc1
Conditions	LDH release cytotoxicity [%]
0.03162 µM	-0.305
0.1 µM	-1.01
0.3162278 µM	-0.589
1 µM	-0.176
3.16228 µM	-0.0966
10 µM	0.986
31.6228 µM	0.193
100 µM	1.19

Nc1c(Cl)cc([N+](=O)[O-])cc1Cl [Dicloran]
Conditions	LDH release cytotoxicity [%]
0.03162 µM	-0.748
0.1 µM	-1.57
0.3162278 µM	-1.57
1 µM	-2.63
3.16228 µM	-1.28
10 µM	-1.61
31.6228 µM	-0.997
100 µM	0.0971

CCOC(=O)COc1ccc2c(c1)CC(NCC(O)c1cccc(Cl)c1)CC2 (configuration not stated)
Conditions	LDH release cytotoxicity [%]
0.02893 µM	-1.56
0.0915 µM	0.00613
0.289348 µM	-0.98
0.915 µM	-1.71
2.89348 µM	-1.72
9.15 µM	-1.13
28.9348 µM	1.91
91.5 µM	10.4

CSC1=NC(C)(c2ccccc2)C(=O)N1Nc1ccccc1 (configuration not stated) [Fenamidone]
Conditions	LDH release cytotoxicity [%]
0.03162 µM	-1.05
0.1 µM	-1.31
0.3162278 µM	-1.11
1 µM	-1.54
3.16228 µM	-1.63
10 µM	-2.26
31.6228 µM	6.59
100 µM	15.2

O=C(O)COc1nc(Cl)c(Cl)cc1Cl [Triclopyr]
Conditions	LDH release cytotoxicity [%]
0.03162 µM	-0.728
0.1 µM	-2.08
0.3162278 µM	-1.59
1 µM	-1.77
3.16228 µM	-1.2
10 µM	0.578
31.6228 µM	34.7
100 µM	45.6

CC(O)CN(CCN(CC(C)O)CC(C)O)CC(C)O (configuration not stated) [1,1',1'',1'''-(Ethanediylnitrilo)tetrakis(2-propanol)]
Conditions	LDH release cytotoxicity [%]
0.03162 µM	-1.14
0.1 µM	-1.86
0.3162278 µM	-1.7
1 µM	-2.22
3.16228 µM	-2.41
10 µM	-1.35
31.6228 µM	5.57
100 µM	18.7

Cn1cnc2c1c(=O)[nH]c(=O)n2C [Theobromine]
Conditions	LDH release cytotoxicity [%]
0.0132816 µM	0.266
0.042 µM	0.527
0.132816 µM	0.244
0.42 µM	-0.545
1.3281566 µM	0.0875
4.2 µM	-0.226
13.281566 µM	-0.215
42 µM	0.896

CC(=O)C(C)=CC1C(C)=CCCC1(C)C (stereo not drawn) [alpha-Isomethylionone]
Conditions	LDH release cytotoxicity [%]
0.03162 µM	-0.906
0.1 µM	-1.92
0.3162278 µM	-1.73
1 µM	-1.69
3.16228 µM	-1.11
10 µM	-1.8
31.6228 µM	-0.46
100 µM	0.422

Oc1c(Cl)c(Cl)c(Cl)c(Cl)c1Cl [Pentachlorophenol]
Conditions	LDH release cytotoxicity [%]
0.0161276 µM	-0.227
0.051 µM	-1.03
0.161276 µM	-1.01
0.51 µM	-0.425
1.6127616 µM	1.21
5.1 µM	9
16.127616 µM	41.1
51 µM	40.65

CC(C)CCCCCCCOC(=O)CCCCC(=O)OCCCCCCCC(C)C [Diisodecyl hexanedioate]
Conditions	LDH release cytotoxicity [%]
0.03162 µM	-0.938
0.1 µM	-1.86
0.3162278 µM	-1.91
1 µM	-1.58
3.16228 µM	-1.63
10 µM	-1.13
31.6228 µM	-0.135
100 µM	0.966

C1CCC(SSC2CCCCC2)CC1 [Dicyclohexyl disulfide]
Conditions	LDH release cytotoxicity [%]
0.03162 µM	-0.985
0.1 µM	-0.62
0.3162278 µM	-0.405
1 µM	-1.38
3.16228 µM	-2
10 µM	-0.29
31.6228 µM	2.64
100 µM	68.4
